Assay results published in patent publication US20250057791A1, “PROTECTION AGAINST ARTHROPOD PARASITES WITH PURINERGIC RECEPTOR (OPR) ANTAGONISTS” (priority 2021, published 2025).
Where “and” joins values, the source holds several entries; their conditions need not be identical. Equal entries are not always repeated. Entries after “also recorded” stand apart in the source; their conditions may differ.

Assays:
[1] = tested on: A. gambiae mouthpart ATP-sensitive receptor; assay: Electrophysiological response to 200 pM ATP with PR antagonist admixed; format: cell-based, Anopheles gambiae; details: for ID50/ID95: block at maximum dose tested: admixed to 200 pM ATP
Experimental: (§1) The tip recording method was used to record action potentials (spikes) from sensory cells in sensilla on A. gambiae labellum lobes.
(§2) Sensilla were exposed to test compounds and PR antagonists for ca. 2-4 s and spikes were counted in the first 2 s of recordings. Up to 4 test compounds were tested on a sensillum to evaluate potential agonists, each presented at 200 pM. To study responses as a function of dose for agonists ATP, adenosine, AMP, AMP-CPP and ATP+adenosine, up to 7 recordings were made at increasing doses of agonist from the same sensillum. Unless otherwise stated, recordings were made throughout from 4 to 16 sensilla from individual 4-6-day-old females per dose of agonist, antagonist and metal ion modulator. For example, a response curve established over 6 doses of an antagonist using 8 sensilla per dose involved recording from a sensillum of 48 separate mosquitoes. A given dose of a PR antagonist or metal ion modulator was only presented once to a sensillum. Two-second recordings were imported as ASCII files into DataView software for analysis of spike amplitude. Differences in spike amplitude generated by stimulation of one 8v sensillum/female with 1 mM sucrose (n=294 spikes from 6 females) 200 pM adenosine (n=207 spikes from 7 females) and 200 pM ATP (n=192 spikes from 7 females) were compared by measuring the spike amplitude in mV between the highest point of depolarisation and the lowest point of hyperpolarisation.
Pairwise comparisons of A. gambiae electrophysiological (EP) responses to ATP and adenosine alone and combined with a given dose of PR antagonist, EP responses to ATP alone and combined with a given dose of a metal modulator, and EP responses to ATP prior to and after exposure of a sensillum to a given dose of a PR antagonist were made with a one-tailed Wilcoxon signed-rank test for data showing a non-normal distribution, with a paired Student's t-test for normally distributed data showing homogeneous variance and with a Welch's t-test for normally distributed data showing non-homogeneous variance. Effects on feeding of adding ATP, AMP-CPP, adenosine, ATP+adenosine, AMP and ADP-βS, CPT with ATP or adenosine, TMP with ATP+adenosine, TMP+CPT with ATP+adenosine to the FS for A. gambiae, and of adding PR antagonists with ATP to the FS for A. stephensi were compared using one-tailed Mann-Whitney U-test or Welch's t-test, depending on data distribution; Holm's FWEC was applied where treatment comparisons involved the same positive control. Percent feeding inhibition induced by PR antagonists in A. stephensi was calculated using Abbott's formula.
Dose-response models fitted to mosquito data were generated using the ‘drm’ command in the “drc” R package (version 2.5-12). Best fitting models (goodness of fit) and effects of dose of a compound were assessed using, respectively, ‘modelFit’ and ‘noEffect’ functions in the same R package. A 3-parameter logistic model (L3) was fitted to spike-counts recorded to increasing doses of adenosine, AMP, ATP and AMP-CPP. Spike numbers recorded in response to 200 pM ATP with increasing doses of PR antagonists added were analysed using a 4-parameter log-logistic model (LL.4) for A-317491 and spinorphin, using a 4-parameter Weibull model (W1.4) for PPADS, RB-2 and TMP, and using a 3-parameter log-logistic model (LL.3) for suramin. An L3 model was fitted to proportions of females feeding on increasing doses of ATP. Feeding rates on 20 μM ATP with increasing doses of a PR antagonist added were analysed using a 4-parameter log-logistic model (LL.4) with the median of the positive control (20 μM ATP) fixed as the upper asymptote. Response dynamics in 3-parameter models are related to the slope b, the upper asymptote, and inflexion point of the model e (the ED50 value), whereas 4 parameter models also include the lower asymptote parameter. […]

[2] = tested on: A. gambiae; assay: Membrane feeding assay, A. gambiae; format: in vivo, Anopheles gambiae; details: for % fed mosquitoes (mean ± s.e.m.), ATP + antagonist: antagonist 20 μM + 20 μM ATP; for feeding inhibition at maximum dose tested: maximum dose 20 μM
Experimental: Experiments with A. gambiae and A. stephensi were made in a climate chamber at 28° C. and 80% RH during the last 6 hours of scotophase. As a sugar meal can interfere with the blood meal by reducing the number of females that feed, the sucrose solution supplied in rearing cages to mosquitoes employed for feeding experiments was reduced to 5%. […] The 5% sucrose solution was presented to mosquitoes from emergence on four 1 cm diam. cotton dental rolls (Hartmann A G, Neuhausen, Switzerland) inserted in 10 ml upturned glass vials placed in holes at each corner of the rearing cage ceiling. Cotton rolls were turned daily in vials and renewed every two days. Mosquitoes were not fed blood and were deprived of sucrose 17 to 20 hours before experiments. Thirty min before a feeding experiment, between 10-25, 6-day-old females that responded to activation by human breath were removed with a mouth aspirator from the rearing cage wall and placed in polystyrol cylinders with the floor cut out (10 cm dm×15 cm high; Semadeni, Ostermundigen, Switzerland) that served as feeding cages. Each cage was covered with mosquito netting at one end and a soft polyurethane lid at the other.
Mosquitoes were fed for 30 min using a feeding system (Hemotek®, Hemotek Ltd, Blackburn, UK) consisting of 3.5 ml stainless steel reservoirs 37 mm in diameter covered with a 60-90 μm thick silicone-impregnated membrane (Kröber and Guerin, 2007 in “Feeding assays for hard ticks”, Trends in parasitology 23, 445-449; doi 10.1016/j.pt.2007.07.010). Feeding reservoirs reached a temperature of 37° C. within 10 min and were placed on the netting of feeding cages. Mosquitoes were activated using a 200 ms pulse of pure CO2 (volume 6.25 ml) from a pressurised cylinder (Carbagas, Switzerland) using a solenoid valve that caused the CO2 level in the feeding cage to rise to at least 1,500 ppm. Between 3 and 4 sets of 10 feeding cages held in a custom-built Ertacetal® POM frame were tested per day, depending of the number of female mosquitoes available from the colony.
All compounds were tested in a mosquito feeding solution (FS) consisting of 25 mM dextrose, 25 mM NaCl buffered with 8.93 mM NaHCO3 adjusted to pH 7.4. Feeding responses of A. gambiae and A. stephensi to ATP as a function of dose were tested with between 7 to 10 feeding cages per dose. Each feeding experiment with an antagonist systematically included a treatment containing the FS as negative control along with a treatment containing the FS with […] added as positive control for A. gambiae and with […] added as positive control for A. stephensi. These positive and negative controls permitted to monitor any effect of experimental day on feeding responses as a function of dose for antagonists that were recorded over several days. […] Four to 10 cages each with 10 to 29 mosquitoes were tested per antagonist dose. […] The number of feeding cages used to test other compounds and their mixtures as feeding stimulants or as feeding inhibitors is listed on Table 6. The percentage of fed mosquitoes was estimated by visual inspection of abdominal distention that is indicative of engorgement.
Pairwise comparisons of A. gambiae electrophysiological (EP) responses to ATP and adenosine alone and combined with a given dose of PR antagonist, EP responses to ATP alone and combined with a given dose of a metal modulator, and EP responses to ATP prior to and after exposure of a sensillum to a given dose of a PR antagonist were made with a one-tailed Wilcoxon signed-rank test for data showing a non-normal distribution, with a paired Student's t-test for normally distributed data showing homogeneous variance and with a Welch's t-test for normally distributed data showing non-homogeneous variance. […]

[3] = tested on: A. gambiae labellum sensilla (purine-sensitive cell); assay: Tip recording of action potentials from A. gambiae labellum sensilla in response to agonists; format: cell-based, Anopheles gambiae; details: for EC50: Anopheles gambiae, read-out: ED50 (the source's name); for EC50 / ED95 / dose at which the unsurmountable asymptote is reached: spike frequency as a function of dose; for spikes recorded at the asymptote: at 250 pM; for Mean spike frequency per 2 s (±SEM): each compound at 200 pM alone and in binary mixtures, T1 labellum sensilla
Experimental: as §1, §2
Spike counts elicited by 200 pM doses of nucleotides, nucleosides, purines, pyrimidines and water were log(x+1.25)-transformed (optimal constant numerically established using a maximum likelihood procedure) and analysed using a linear mixed effects model (function ‘lme’ in “nlme” R package) with mosquito number as random effect. To model inhomogeneous variance in residuals (near normal distribution, P=0.045, Shapiro-Wilk test, W=0.98604), the variance function ‘varldent’ in the “nlme” package that allows for different variance per treatment was used. Statistical differences were identified between treatments using post-hoc-Tukey test with contrasts adjusted by Holm's family wise error compensation (FWEC). Spike counts elicited by ATP, AMP, adenosine and their binary mixtures were analysed using a generalised linear model (LM) of log (x+10) transformed data and differences were identified using post-hoc-Tukey test with Holm's FWEC.
Log transformed spike amplitudes generated in response to ATP, adenosine and sucrose were compared using linear mixed effects models using the ‘lme’ function of the “nlme” R package, with spike amplitude as the dependent variable, treatment as the fixed factor and mosquito number within treatment as random effect. Residuals were normally distributed (Shapiro-Wilk test P>0.0563) and their variances homogeneous (Bartlett test P>0.9799); P-values were corrected using Holm's FWEC.
Dose-response models fitted to mosquito data were generated using the ‘drm’ command in the “drc” R package (version 2.5-12). Best fitting models (goodness of fit) and effects of dose of a compound were assessed using, respectively, ‘modelFit’ and ‘noEffect’ functions in the same R package. A 3-parameter logistic model (L3) was fitted to spike-counts recorded to increasing doses of adenosine, AMP, ATP and AMP-CPP. Spike numbers recorded in response to 200 pM ATP with increasing doses of PR antagonists added were analysed using a 4-parameter log-logistic model (LL.4) for A-317491 and spinorphin, using a 4-parameter Weibull model (W1.4) for PPADS, RB-2 and TMP, and using a 3-parameter log-logistic model (LL.3) for suramin. An L3 model was fitted to proportions of females feeding on increasing doses of ATP. Feeding rates on 20 μM ATP with increasing doses of a PR antagonist added were analysed using a 4-parameter log-logistic model (LL.4) with the median of the positive control (20 μM ATP) fixed as the upper asymptote. […]

[4] = antagonist 1000 nM + 200 pM ATP

Which “Mean no. of spikes per 2 s (±s.e.m.), ATP + antagonist” value (from here on “Mean no. of spikes per 2 s”) [1, 4] does the source give for `Clc1cccc(-c2nnnn2Cc2cccnc2)c1Cl` [A-438079, 3-[[5-(2,3-dichlorophenyl)tetrazol-1-yl]methyl]pyridine] here?
The value was 22.57 spikes per 2 s.

What about the “ID50/ID95: block at maximum dose tested” value ([1]; maximum dose 1 μM) of the same molecule?
The value was “No block (1 μM)”.

And the “% reduction in feeding” value ([2]; 20 μM, with 20 μM ATP)?
Its value is “(20 μM, 30.74%)”.

What about the “% fed mosquitoes (mean ± s.e.m.), ATP + antagonist” value (shortened to “% fed mosquitoes”) [2] of the same molecule?
The value was 48.65%.

With `Nc1ncnc2c1ncn2[C@@H]1O[C@H](COP(=O)(O)OP(=O)(O)O)[C@@H](O)[C@H]1O` [ADP, Adenosine 5′-diphosphate] as the molecule, how does the “EP response in words” value ([3]; 200 pM) read?
Its value is “no activity; also recorded: failure”.

For `Nc1ncnc2c1ncn2[C@@H]1O[C@H](COP(=O)(O)O)[C@@H](O)[C@H]1O` [AMP, Adenosine 5′-monophosphate], which EC50 [3] is on record?
The EC50 was ~0.12 nM.

And the “spikes recorded at the asymptote” value [3]?
The value was “approximately 30 spikes/2 s”.

And the “Mean spike frequency per 2 s (±SEM)” value [3]?
Its value is 28.58 per 2 s.

What about the ED95 [3] of the same molecule?
The ED95 was ~0.2 nM.

And the “dose at which the unsurmountable asymptote is reached” value [3]?
The value was 250 pM.

What about the “% Engorged mosquitoes” value ([2]; 20 μM in feeding solution) of the same molecule?
The value was 38.3 ± 5.1%.

With `Nc1ncnc2c1ncn2C1OC(COP(=O)(O)CP(=O)(O)OP(=O)(O)O)C(O)C1O` (stereo not drawn) [AMP-CPP, α,β-Methyleneadenosine-5′-triphosphate] as the molecule, how does the ED95 [3] read?
Its ED95 is 0.05 nM.

And the “dose at which the unsurmountable asymptote is reached” value [3]?
Its value is 80 pM.

What about the “% Engorged mosquitoes” value ([2]; 20 μM in feeding solution) of the same molecule?
The value was 84.35% and 84.3 ± 6.8%.

What does the source list for `Nc1ncnc2c1ncn2[C@@H]1O[C@H](CO)[C@@H](O)[C@H]1O` [Adenosine, 9-β-D-Ribofuranosyladenine]?
spike frequency ([3]; 50 pM alone, mixture 50 pM of each agonist): 1.25±0.62 /2s; EP response, spike frequency ([3]; 200 pM): 30.23±3.02 spikes/2s; EC50 [3]: ~0.12 nM; spikes recorded at the asymptote [3]: approximately 30 spikes/2 s; Mean spike frequency per 2 s (±SEM) [3]: 27.14 per 2 s; ED95 [3]: ~0.2 nM; dose at which the unsurmountable asymptote is reached [3]: 250 pM; % Engorged mosquitoes ([2]; 20 μM in feeding solution): 39.1 ± 5.7%; % Engorged mosquitoes ([2]; 1 mM in feeding solution): 64.4 ± 3.2%

`Cc1nc(N=Nc2ccc(C(=O)O)cc2)c(COP(=O)(O)O)c(C=O)c1O` [MRS 2159, [2-[(4-carboxyphenyl)diazenyl]-4-formyl-6-methyl-5-oxidopyridin-3-yl]methyl phosphate] was tested. Which “Mean no. of spikes per 2 s” value [1, 4] did it give?
The value was 27.14 spikes per 2 s.

And the “ID50/ID95: block at maximum dose tested” value ([1]; maximum dose 1 μM)?
The value was “No block (1 μM)”.

What about the “% fed mosquitoes” value [2] of the same molecule?
The value was 79.19%.

What about the “feeding inhibition at maximum dose tested” value ([2]; with 20 μM ATP) of the same molecule?
Its value is “No feeding inhibition”.

`Fc1ccc([C@@H]2CCNC[C@H]2COc2ccc3c(c2)OCO3)cc1` [Paroxetine, (3S,4R)-3-(1,3-benzodioxol-5-yloxymethyl)-4-(4-fluorophenyl)piperidine] was tested. Which “Mean no. of spikes per 2 s” value ([1]; antagonist 2000 nM + 200 pM ATP) did it give?
Its value is 27.6 spikes per 2 s.

And the “ID50/ID95: block at maximum dose tested” value ([1]; maximum dose 2 μM)?
Its value is “No block (2 μM)”.

And the “% fed mosquitoes” value [2]?
The value was 62.72%.

What about the “feeding inhibition at maximum dose tested” value ([2]; with 20 μM ATP) of the same molecule?
Its value is “No feeding inhibition”.

How did the “EP response in words” value ([3]; 200 pM) turn out when `Nc1ncnc2c1ncn2[C@H]1C[C@H](O)[C@@H](COP(=O)(O)OP(=O)(O)OP(=O)(O)O)O1` [dATP, 2′-Deoxyadenosine 5′-triphosphate] was run?
The value was “strongly reduced activity”.

How did the “EP response in words” value ([3]; 200 pM) turn out when `Nc1ncnc2c1ncn2[C@H]1CC[C@@H](COP(=O)(O)OP(=O)(O)OP(=O)(O)O)O1` [ddATP, 2′,3′-Dideoxyadenosine-5′-triphosphate] was run?
Its value is “strongly reduced activity”.
